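96-well plates; 48 h exposure; 5 concentrations. Endpoints by linear interpolation between flanking doses. Not reached: highest tested concentration assigned. GI50 marks 50% less growth. Definition used: TGI = concentration required for complete inhibition of growth.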
Columns and labels:
Assay in all cases: NCI-60 cell line screen, 48 h; in the data active = GI50 below about 0.43 µM; inactive = the rest
[1] = system: SNB-19 CNS
[2] = system: NCI-H226 lung
[3] = system: MALME-3M melanoma
[4] = system: RPMI-8226 leukemia
[5] = system: NCI-H460 lung
[6] = system: HS 578T breast
[7] = system: BT-549 breast
[8] = system: K-562 leukemia
[9] = system: MDA-MB-231 breast
[10] = system: M14 melanoma
[11] = system: HCC-2998 colon
[12] = system: MOLT-4 leukemia
[13] = system: MDA-MB-468 breast
[14] = system: OVCAR-5 ovarian
[15] = system: SF-295 CNS
[16] = system: HL-60(TB) leukemia
[17] = system: HCT-15 colon
[18] = system: KM12 colon
[19] = system: U251 CNS
[20] = system: UACC-257 melanoma
[21] = system: UACC-62 melanoma
[22] = system: SN12C renal
[23] = system: MCF7 breast
[24] = system: TK-10 renal
[25] = system: DU-145 prostate
[26] = system: OVCAR-4 ovarian
[27] = system: LOX IMVI melanoma
[28] = system: SK-MEL-5 melanoma
[29] = system: 786-0 renal
[30] = system: HOP-62 NSCLC
[31] = system: ACHN renal
[32] = system: A549 NSCLC
[33] = system: SR leukemia
[34] = system: HOP-92 NSCLC
[35] = system: A498 renal
[36] = system: T-47D breast
[37] = system: OVCAR-8 ovarian
[38] = system: UO-31 renal
[39] = system: MDA-MB-435
[40] = system: SF-539 CNS
[41] = system: HCT-116 colon
[42] = system: NCI-H522 lung
[43] = system: CCRF-CEM leukemia
[44] = system: EKVX NSCLC
[45] = system: SK-MEL-2 melanoma
[46] = system: PC-3 prostate
[47] = system: IGROV1 ovarian
[48] = system: SK-OV-3 ovarian
[49] = system: RXF 393 renal
[50] = system: COLO 205 colon
[51] = system: CAKI-1 renal
[52] = system: OVCAR-3 ovarian
[53] = system: SW-620 colon
[54] = system: HT29 colon
[55] = system: SF-268 CNS
[56] = system: NCI-H23 lung
[57] = system: SK-MEL-28 melanoma

COc1ccc(-c2cc(-c3cc(OC)c(OC)c(OC)c3)[nH]c(=O)c2C#N)cc1
24.9 µM: TGI [2]
30.8 µM: TGI [45]
24.1 µM: TGI [30]
97.3 µM: TGI [3]
> 100 µM: TGI [4] | TGI [8] | TGI [10] | TGI [11] | TGI [12] | TGI [14] | TGI [16] | TGI [17] | TGI [18] | TGI [20] | TGI [21] | TGI [23] | TGI [24] | TGI [25] | TGI [32] | TGI [33] | TGI [36] | TGI [39] | TGI [41] | TGI [43] | TGI [44] | TGI [46] | TGI [50] | TGI [52] | TGI [53] | TGI [54] | TGI [57]
64.7 µM: TGI [28]
29.8 µM: TGI [26]
inactive: GI50 [1] 6.4 µM | GI50 [2] 5.6 µM | GI50 [3] 19.3 µM | GI50 [4] > 100 µM | GI50 [5] 12.9 µM | GI50 [6] 5.67 µM | GI50 [7] 16.5 µM | GI50 [8] > 100 µM | GI50 [9] 3.76 µM | GI50 [10] > 100 µM | GI50 [11] > 100 µM | GI50 [12] > 100 µM | GI50 [13] 17.8 µM | GI50 [14] > 100 µM | GI50 [15] 12.3 µM | GI50 [16] > 100 µM | GI50 [17] 96.3 µM | GI50 [18] > 100 µM | GI50 [19] 4.48 µM | GI50 [20] 76.6 µM | GI50 [21] 27.2 µM | GI50 [22] 3.8 µM | GI50 [23] 23.8 µM | GI50 [24] 19.8 µM | GI50 [25] 88.1 µM | GI50 [26] 4.24 µM | GI50 [27] 14 µM | GI50 [28] 17.1 µM | GI50 [29] 4.88 µM | GI50 [30] 7.08 µM | GI50 [31] 9.76 µM | GI50 [32] 14 µM | GI50 [33] > 100 µM | GI50 [34] 1.97 µM | GI50 [35] 3.81 µM | GI50 [36] 7.72 µM | GI50 [37] 4.3 µM | GI50 [38] 3.54 µM | GI50 [39] > 100 µM | GI50 [40] 5.79 µM | GI50 [41] 55.9 µM | GI50 [42] 20.3 µM | GI50 [43] > 100 µM | GI50 [44] 21.3 µM | GI50 [45] 14.6 µM | GI50 [46] 25.5 µM | GI50 [47] 15.1 µM | GI50 [48] 7.52 µM | GI50 [49] 2.35 µM | GI50 [50] > 100 µM | GI50 [51] 6.96 µM | GI50 [52] 62.7 µM | GI50 [53] 71.8 µM | GI50 [54] 71.6 µM | GI50 [55] 16.9 µM | GI50 [56] 18.9 µM | GI50 [57] 46 µM
26.7 µM: TGI [48]
25.2 µM: TGI [38]
31.4 µM: TGI [51]
32.3 µM: TGI [15]
18.4 µM: TGI [9]
79.5 µM: TGI [55]
64.4 µM: TGI [42]
12.1 µM: TGI [49]
61.6 µM: TGI [22]
48 µM: TGI [7]
23.4 µM: TGI [35]
47.4 µM: TGI [27]
47 µM: TGI [13]
8.17 µM: TGI [34]
32.2 µM: TGI [31]
62.1 µM: TGI [56]
20.1 µM: TGI [29]
20.2 µM: TGI [40]
35.8 µM: TGI [1]
76.3 µM: TGI [47]
22.4 µM: TGI [19] | TGI [37]
56.8 µM: TGI [6]
44.3 µM: TGI [5]

From PubChem BioAssay (NCI)
